Several values for one entry are separate records, joined by “and”; a condition that tells them apart may be missing. Equal entries are not always repeated.
How the values were obtained:
[1] = system: HCV RNA in stably HCV RNA-replicating cell line AVA5; assay: Primary in vitro anti-HCV screen: intracellular HCV RNA levels in AVA5 cells (branched DNA assay); assay type: cell-based, Hepatitis C virus; details: 10 μM, AVA5, duplicate cultures; for HCV % Control: HCV RNA as percentage of untreated cultures; for HCV Copies/ml: once daily for three days
Protocol: Primary in vitro anti-HCV screen. The antiviral activity of test compounds were assayed in the stably HCV RNA-replicating cell line, AVA5, derived by transfection of the human hepatoblastoma cell line, Huh7 (Blight, et al., 2000, Science 290: 1972). The test compounds were added to dividing cultures once daily for three days. The media was changed with each addition of the compounds. […] Intracellular HCV RNA levels and cytotoxicity are assessed 24 hours after the last dose of compound.
(§1) Assays were conducted using a single dose of test compound. Duplicate cultures for HCV RNA levels (on 48-well plates) and triplicate cultures for cytotoxicity (on 96-well plates) are used.
(§2) Intracellular HCV RNA levels were measured using a commercial assay (Veresant®, Bayer Diagnostics, Inc. Ross, et al. (2002) J. Virol. Meth. 101:159–168, Quantitation of hepatitic C virus RNA by third generation branched DNA-based signal amplification assay). Cytotoxicity was measured using an established neutral red dye uptake assay (Korba, B. E. and J. L. Gerin. 1992. Use of a standardized cell culture assay to determine activities of nucleoside analogs against hepatitis B virus relication. Antivir. Res. 19:55–70). HCV RNA levels in the treated cultures are expressed as a percentage of the mean levels of RNA detected in untreated cultures. A level of 30% or less, HCV RNA relative to control cultures may be considered to be a positive antiviral effect. A level of 50% or less, neutral red dye uptake relative to control cultures may be considered to be a cytotoxic effect.

[2] = system: HCV RNA-replicating cell line AVA5; assay: Normalized Viral Assay; assay type: cell-based, Hepatitis C virus
Protocol: (§3) Primary in vitro anti-HCV screen. The antiviral activity of test compounds were assayed in the stably HCV RNA-replicating cell line, AVA5, derived by transfection of the human hepatoblastoma cell line, Huh7 (Blight, et al., 2000, Science 290: 1972). The test compounds were added to dividing cultures once daily for three days. The media was changed with each addition of the compounds. Cultures generally start the assay at 30–50% confluence and reach confluence during the last day of treatment.

[3] = system: AVA5 cell line; assay: MTS Cell Viability
[4] = system: AVA5 cell line (derived from human hepatoblastoma cell line Huh7); assay: Primary screen cytotoxicity: neutral red dye uptake; assay type: cell-based; details: 10 μM, AVA5; for Neutral Red % Control: dye uptake relative to untreated cultures
Protocol: as §3, §1, §2

[5] = system: AVA5 cell line; assay: ATP Cell Viability

SMILES | HCV % Control [1] | HCV Copies/ml [1] | Normalized Viral Assay ([2]; 1 μM) | Normalized Viral Assay ([2]; 5 μM) | Normalized Viral Assay ([2]; 10 μM) | MTS Cell Viability ([3]; 5 μM) | MTS Cell Viability ([3]; 10 μM) | ATP Cell Viability ([5]; 5 μM) | ATP Cell Viability ([5]; 10 μM) | other results
O=c1oc2ccccc2c(Sc2ccc(Br)cc2)c1Sc1ccc(F)cc1 [VQ_412] | 54 % Control and 49 % Control | 726473 Copies/ml and 656755 Copies/ml | – | – | – | – | – | – | – | –
Cc1ccc(Sc2c(Sc3ccc(F)cc3Cl)c3ccccc3oc2=O)cc1C [VQ_437] | 41 % Control and 38 % Control | 556515 Copies/ml and 507191 Copies/ml | – | – | – | – | – | – | – | –
Cc1cc(C)cc(Sc2c(Sc3cccc(Cl)c3)c3ccccc3oc2=O)c1 [VQ_468] | 23 % Control and 24 % Control | 306102 Copies/ml and 318777 Copies/ml | – | – | – | – | – | – | – | –
Cc1cc(C)cc(Sc2c(Sc3ccc(F)cc3Cl)c3ccccc3oc2=O)c1 [VQ_473] | 39 % Control | 529743 Copies/ml and 523506 Copies/ml | – | – | – | – | – | – | – | –
O=c1oc2ccccc2c(Sc2ccc(Br)cc2)c1Sc1ccc(F)cc1 [compound 412] | – | – | 55.65 | 28.13 | 16.13 | – | – | – | – | –
Cc1ccc(Sc2c(Sc3ccc(F)cc3Cl)c3ccccc3oc2=O)cc1C [compound 437] | – | – | 59.33 | 34.83 | 20.41 | – | – | – | – | –
Cc1cc(C)cc(Sc2c(Sc3ccc(F)cc3Cl)c3ccccc3oc2=O)c1 [compound 473] | – | – | 68.16 | 40.79 | 12.45 | – | – | – | – | –
COc1ccc2oc(=O)cc(Sc3ccccc3F)c2c1 [compound 824] | – | – | – | 52.29 | 17.28 | 94.56 | 84.15 | 91.28 | 75.61 | Neutral Red % Control ([4]; listed as VQ_824): 99 % Control and 102 % Control; Neutral Red O.D. ([4]; listed as VQ_824): 2.214 O.D. and 2.274 O.D.; HCV % Control ([1]; listed as VQ_824): 101 % Control and 90 % Control; HCV Copies/ml ([1]; listed as VQ_824): 1357786 Copies/ml and 1211659 Copies/ml
COc1ccc2oc(=O)cc(Sc3ccc(F)cc3F)c2c1 [compound 830] | – | – | 87.63 | 46.87 | 40.35 | 101.06 | 98.85 | 97.11 | 104.41 | MTS Cell Viability ([3]; 1 μM): 112.38; ATP Cell Viability ([5]; 1 μM): 106.44
O=c1cc(Sc2ccccc2Cl)c2cc(F)ccc2o1 [compound 894] | – | – | 35.65 | 9.04 | 6.84 | 83.91 | 81.24 | 109.42 | 58.26 | MTS Cell Viability ([3]; 1 μM): 104.53; Neutral Red % Control ([4]; listed as VQ_894): 100 % Control and 101 % Control; Neutral Red O.D. ([4]; listed as VQ_894): 2.234 O.D. and 2.257 O.D.; HCV % Control ([1]; listed as VQ_894): 95 % Control and 84 % Control; HCV Copies/ml ([1]; listed as VQ_894): 1277826 Copies/ml and 1128325 Copies/ml; ATP Cell Viability ([5]; 1 μM): 113.25
O=c1cc(Sc2ccc(F)cc2Cl)c2cc(F)ccc2o1 [compound 899] | – | – | 40.10 | 10.66 | 10.32 | 90.22 | 85.37 | 112.43 | 105.60 | MTS Cell Viability ([3]; 1 μM): 106.10; Neutral Red % Control ([4]; listed as VQ_899): 100 % Control and 102 % Control; Neutral Red O.D. ([4]; listed as VQ_899): 2.237 O.D. and 2.286 O.D.; HCV % Control ([1]; listed as VQ_899): 66 % Control and 65 % Control; HCV Copies/ml ([1]; listed as VQ_899): 886875 Copies/ml and 873484 Copies/ml; ATP Cell Viability ([5]; 1 μM): 102.77

Source: US7148253B2, “4-thio coumarins” (priority 2002, dated 2006)
